Activity calls are given as the source filed them. The rule behind the calls is not given here. Where a SMILES comes first, the peptide text is derived from it. [ ]: non-standard residue; d: D form. Aib = CC(C)(N)C(=O)O

Data set [1] is described as follows: Ion conductance property of compound in Diphytanoylphosphatidyl-choline bilayer assessed as ion channel forming ability at 1 uM treated at cis-side of the membrane at +100 mV by tip-dip patch clamp method. In general terms: The patch-clamp technique gives a direct electrical read-out from membranes.
Data set [2] relates to Erythrocyte. Nature of the data set: Hemolytic activity in human erythrocytes at 50 ug/ml incubated for 1 hr by absorbance based analysis. The following applies: dose 50 µg/ml. In kind it is toxicity, cell-based.
Data set [3] has as its system Erythrocyte. The experiment in a line: Hemolytic activity in human erythrocytes at 10 ug/ml incubated for 1 hr by absorbance based analysis. It is filed as toxicity, cell-based. As to conditions: dose 10 µg/ml.

As for `CC[C@H](C)[C@H](NC(=O)[C@@H]1CCCN1C(=O)C(C)(C)NC(=O)[C@H](CC(C)C)NC(=O)[C@@H](NC(=O)[C@@H]1CCCN1C(=O)C(C)(C)NC(=O)[C@@H](NC(=O)[C@@H](NC(=O)[C@H](CC(N)=O)NC(=O)C(C)(C)NC(C)=O)[C@@H](C)CC)[C@@H](C)CC)[C@@H](C)CC)C(=O)O` (Ac-[Aib]NII[Aib]PIL[Aib]PI-OH), the result in data set [1] was Active. Moreover, the values for the Activity entry in the data set with Erythrocyte [2] and in the data set with Erythrocyte [3] were “Toxic” and “Non-Toxic”, respectively.
On the same counts, the results for `CC[C@H](C)[C@H](NC(=O)[C@@H]1CCCN1C(=O)C(C)(C)NC(=O)[C@@H](NC(=O)[C@@H](NC(=O)[C@@H]1CCCN1C(=O)C(C)(C)NC(=O)[C@@H](NC(=O)[C@@H](NC(=O)[C@H](CC(N)=O)NC(=O)C(C)(C)NC(C)=O)[C@@H](C)CC)[C@@H](C)CC)[C@@H](C)CC)[C@@H](C)CC)C(=O)O` (Ac-[Aib]NII[Aib]PII[Aib]PI-OH) are “Active”, “Toxic” and “Non-Toxic”.
On the same counts, the results for `CC[C@H](C)[C@H](NC(=O)[C@H](CC(N)=O)NC(=O)C(C)(C)NC(C)=O)C(=O)N[C@H](C(=O)NC(C)(C)C(=O)N1CCC[C@H]1C(=O)N[C@@H](CC(C)C)C(=O)N[C@@H](CC(C)C)C(=O)NC(C)(C)C(=O)N1CCC[C@H]1C(=O)N[C@@H](CC(C)C)C(=O)O)[C@@H](C)CC` (Ac-[Aib]NII[Aib]PLL[Aib]PL-OH) are “Active”, “Toxic” and “Non-Toxic”.
On the same counts, the results for `CC[C@H](C)[C@H](NC(=O)[C@H](CC(N)=O)NC(=O)C(C)(C)NC(C)=O)C(=O)N[C@@H](CC(C)C)C(=O)NC(C)(C)C(=O)N1CCC[C@H]1C(=O)N[C@@H](CC(C)C)C(=O)N[C@@H](CC(C)C)C(=O)NC(C)(C)C(=O)N1CCC[C@H]1C(=O)N[C@@H](CC(C)C)C(=O)O` (Ac-[Aib]NIL[Aib]PLL[Aib]PL-OH) are “inactive”, “Toxic” and “Non-Toxic”.
Regarding `CC[C@H](C)[C@H](NC(=O)[C@@H]1CCCN1C(=O)C(C)(C)NC(=O)[C@@H](NC(=O)[C@H](CC(C)C)NC(=O)[C@@H]1CCCN1C(=O)C(C)(C)NC(=O)[C@H](CC(C)C)NC(=O)[C@H](CC(C)C)NC(=O)[C@H](CC(N)=O)NC(=O)C(C)(C)NC(C)=O)[C@@H](C)CC)C(=O)O` (Ac-[Aib]NLL[Aib]PLI[Aib]PI-OH), the outcome in data set [1] was Active. Further, the Activity result in the data set on Erythrocyte [2] is “Toxic”.
For `CC[C@H](C)[C@H](NC(=O)[C@H](CC(N)=O)NC(=O)C(C)(C)NC(C)=O)C(=O)N[C@H](C(=O)NC(C)(C)C(=O)N1CCC[C@H]1C(=O)N[C@H](C(=O)N[C@@H](CC(C)C)C(=O)NC(C)(C)C(=O)N1CCC[C@H]1C(=O)N[C@@H](CC(C)C)C(=O)O)[C@@H](C)CC)[C@@H](C)CC` (Ac-[Aib]NII[Aib]PIL[Aib]PL-OH), the result in data set [1] was inactive. The values for the Activity result with Erythrocyte [2] and in the data set with Erythrocyte [3] were “Toxic” and “Non-Toxic”, respectively.
On to `CC[C@H](C)[C@H](NC(=O)[C@@H](NC(=O)[C@@H]1CCCN1C(=O)C(C)(C)NC(=O)[C@H](CC(C)C)NC(=O)[C@H](CC(C)C)NC(=O)[C@H](CC(N)=O)NC(=O)C(C)(C)NC(C)=O)[C@@H](C)CC)C(=O)NC(C)(C)C(=O)N1CCC[C@H]1C(=O)N[C@@H](CC(C)C)C(=O)O` (Ac-[Aib]NLL[Aib]PII[Aib]PL-OH), for which the Activity entry is on record as “Toxic” in the data set on Erythrocyte [2] and “Non-Toxic” in the data set with Erythrocyte [3].
For the compound `CC[C@H](C)[C@H](NC(=O)[C@H](CC(C)C)NC(=O)[C@H](CC(N)=O)NC(=O)C(C)(C)NC(C)=O)C(=O)NC(C)(C)C(=O)N1CCC[C@H]1C(=O)N[C@H](C(=O)N[C@H](C(=O)NC(C)(C)C(=O)N1CCC[C@H]1C(=O)N[C@@H](CC(C)C)C(=O)O)[C@@H](C)CC)[C@@H](C)CC` (Ac-[Aib]NLI[Aib]PII[Aib]PL-OH), the result in data set [1] was inactive. Also, the figures for the Activity entry with Erythrocyte [2] and with Erythrocyte [3] were “Toxic” and “Non-Toxic”, respectively.
On to `CC[C@H](C)[C@H](NC(=O)[C@@H]1CCCN1C(=O)C(C)(C)NC(=O)[C@@H](NC(=O)[C@@H](NC(=O)[C@@H]1CCCN1C(=O)C(C)(C)NC(=O)[C@H](CC(C)C)NC(=O)[C@H](CC(C)C)NC(=O)[C@H](CC(N)=O)NC(=O)C(C)(C)NC(C)=O)[C@@H](C)CC)[C@@H](C)CC)C(=O)O` (Ac-[Aib]NLL[Aib]PII[Aib]PI-OH), for which, in data set [1], the result was Active. Moreover, the Activity result with Erythrocyte [2] is recorded as “Toxic”.
Consider `CC[C@H](C)[C@H](NC(=O)[C@H](CC(C)C)NC(=O)[C@@H]1CCCN1C(=O)C(C)(C)NC(=O)[C@H](CC(C)C)NC(=O)[C@H](CC(C)C)NC(=O)[C@H](CC(N)=O)NC(=O)C(C)(C)NC(C)=O)C(=O)NC(C)(C)C(=O)N1CCC[C@H]1C(=O)N[C@@H](CC(C)C)C(=O)O` (Ac-[Aib]NLL[Aib]PLI[Aib]PL-OH), for which the Activity entry was “Toxic” with Erythrocyte [2] and “Non-Toxic” with Erythrocyte [3].
As to `CC[C@H](C)[C@H](NC(=O)[C@@H]1CCCN1C(=O)C(C)(C)NC(=O)[C@H](CC(C)C)NC(=O)[C@H](CC(C)C)NC(=O)[C@@H]1CCCN1C(=O)C(C)(C)NC(=O)[C@H](CC(C)C)NC(=O)[C@H](CC(C)C)NC(=O)[C@H](CC(N)=O)NC(=O)C(C)(C)NC(C)=O)C(=O)O` (Ac-[Aib]NLL[Aib]PLL[Aib]PI-OH), in data set [1], the result was Active. For the same compound, the Activity result in the data set with Erythrocyte [2] is reported as “Toxic”; in the data set with Erythrocyte [3], “Non-Toxic”.
On the same counts, the results for `CC(=O)NC(C)(C)C(=O)N[C@@H](CC(N)=O)C(=O)N[C@@H](CC(C)C)C(=O)N[C@@H](CC(C)C)C(=O)NC(C)(C)C(=O)N1CCC[C@H]1C(=O)N[C@@H](CC(C)C)C(=O)N[C@@H](CC(C)C)C(=O)NC(C)(C)C(=O)N1CCC[C@H]1C(=O)N[C@@H](CC(C)C)C(=O)O` (Ac-[Aib]NLL[Aib]PLL[Aib]PL-OH) are “inactive”, “Toxic” and “Non-Toxic”.
For `CC[C@H](C)[C@H](NC(=O)[C@H](CC(N)=O)NC(=O)C(C)(C)NC(C)=O)C(=O)N[C@H](C(=O)NC(C)(C)C(=O)N1CCC[C@H]1C(=O)N[C@H](C(=O)N[C@H](C(=O)NC(C)(C)C(=O)N1CCC[C@H]1C(=O)N[C@@H](CC(C)C)C(=O)O)[C@@H](C)CC)[C@@H](C)CC)[C@@H](C)CC` (Ac-[Aib]NII[Aib]PII[Aib]PL-OH), the outcome in data set [1] was Active. The Activity result in the data set on Erythrocyte [2] is “Toxic”.
For the compound `CC[C@H](C)[C@H](NC(=O)[C@@H]1CCCN1C(=O)C(C)(C)NC(=O)[C@@H](NC(=O)[C@@H](NC(=O)[C@@H]1CCCN1C(=O)C(C)(C)NC(=O)[C@@H](NC(=O)[C@H](CC(C)C)NC(=O)[C@H](CC(N)=O)NC(=O)C(C)(C)NC(C)=O)[C@@H](C)CC)[C@@H](C)CC)[C@@H](C)CC)C(=O)O` (Ac-[Aib]NLI[Aib]PII[Aib]PI-OH), the result in data set [1] was Active. For the same compound, the figures for the Activity result with Erythrocyte [2] and in the data set on Erythrocyte [3] were “Toxic” and “Non-Toxic”, respectively.
On the same counts, the results for `CC[C@H](C)[C@H](NC(=O)[C@@H]1CCCN1C(=O)C(C)(C)NC(=O)[C@H](CC(C)C)NC(=O)[C@H](CC(C)C)NC(=O)[C@@H]1CCCN1C(=O)C(C)(C)NC(=O)[C@@H](NC(=O)[C@@H](NC(=O)[C@H](CC(N)=O)NC(=O)C(C)(C)NC(C)=O)[C@@H](C)CC)[C@@H](C)CC)C(=O)O` (Ac-[Aib]NII[Aib]PLL[Aib]PI-OH) are “Active”, “Toxic” and “Non-Toxic”.

(Values after ChEMBL document CHEMBL5576117, “Importance of isoleucine residue in ion channel formation ability of 11-residue peptaibols” (Bioorg Med Chem, 2024).)
